Article PMC6381276 (mBio, 2019)

Biological target: McpN (PA2788) chemoreceptor (Pseudomonas aeruginosa, UniProt Q9I055)
Assay: biochemical

Chain of McpN (PA2788) chemoreceptor (Q9I055 44-179): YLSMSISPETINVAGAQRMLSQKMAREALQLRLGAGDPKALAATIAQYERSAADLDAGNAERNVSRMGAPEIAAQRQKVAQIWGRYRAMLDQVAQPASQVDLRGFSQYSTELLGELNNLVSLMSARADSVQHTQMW

For `O=[N+]([O-])O` [nitrate], the Kd was 47 ± 8 µM.
